This note sets out measurements from patent US20250019700A1, “TREATING CHEMORESISTANT FORMS OF LEUKEMIA AND OTHER CANCERS THAT OVEREXPRESS RNA BINDING PROTEIN FXR1” (The General Hospital Corporation, priority 2021, published 2025).

Holding throughout (format): cell-based
For one experiment, the system named is FXR1. The experiment is described as follows: Western blot of FXR1 levels in AraC treated THP1 cells. As to conditions: AraC treated surviving THP1 cells compared to untreated (1 μM AraC, FIG. 1A). The procedure: (§1) THP1 cells were cultured in […] media supplemented with 10% fetal bovine serum (FBS), 2 mM L-Glutamine, 100 μg/mL streptomycin and 100 U/ml penicillin at 37° C. in 5% CO2. SS THP1 cells were prepared by washing with PBS followed by serum-starvation at a density of 2×10^5 cells/mL and AraCS cells, by treatment with indicated concentrations of AraC for indicated periods of time. THP1 (TIB-202) and MV4:11 (CRL-9591) were obtained from ATCC. MOLM13 (ACC554) were obtained from DSMZ. Cell lines kindly provided by David Scadden.
(§2) Cells were collected and resuspended in lysis buffer containing 40 mM Tris-HCl (pH 7.4), 6 mM MgCl2, 150 mM NaCl, 0.1% NP-40, 1 mM DTT, […], 17.5 mM β-glycerophosphate, 5 mM NaF and protease inhibitors. Samples containing 80 μg of protein were loaded onto 4%-20% gradient SDS-PAGE (Bio-Rad) or 16% SDS-PAGE (Invitrogen), transferred to PVDF membranes and processed for immunoblotting.
Antibodies against FXR1 (used for Western), Actin, Tubulin were from Millipore; NOLC1, DDX21, PolR1D, RPLP0, RPLP2, RPL29, RPL11, FXR1 (used for Immunoprecipitation) were from Protein Tech; PKR, P—PKR, EIF2α, P-EIF2α, GCN2 (used for immunoprecipitation) were from Cell Signaling; P-GCN2, GCN2 (used for Western) were from abcam.
A general note: A western blot detects proteins with antibodies after separation by electrophoresis.

The next experiment has as its system PKR. As to the kind of experiment: Western blot of phosphorylated PKR in AraC treated cells. The following applies: AraC treated cells (0, 1, 5 μM AraC), normalized to total PKR.
The test system of experiment [1] is 28S rRNA snoRA22 sites U4966 and U4975. The experiment is described as follows: Low dNTP CMCT qPCR assay of rRNA pseudouridylation. The following applies: AraC cells (THP1). The procedure: For analysis of 2′O-methylation, RNA was prepared from indicated cells. Reverse transcription (as described above in qPCR) was performed with primers in the reverse orientation from the modification site on ribosomal RNA. Two different dNTP concentrations were used for each primer, low (0.025 mM) and high (2.5 mM). qPCR was done with the resulting cDNA using primers at forward and reverse orientation to the modified sites. Fold change in modification was calculated based on difference of Ct values in the low and high dNTP conditions. For analyzing pseudouridylation, first the RNA was treated with CMCT (1-cyclohexyl-(2-morpholinoethyl) carbodiimide metho-p-toluene sulfonate) under alkaline conditions. Rest of the experiment was done as described above for 2′O-methylation.
(In general: Quantitative PCR measures a nucleic acid by following its amplification.)

A further experiment relates to FXR1 OE cells (THP1). As to the kind of experiment: Chemosurvival (fraction of cell viability) of FXR1 OE cells treated with AraC plus inhibitor. The procedure:
as §1
THP1 FXR1 OE cell lines were created by infecting cells with an FXR1 containing retroviral vector for constitutive over expression of FXR1. Corresponding control cell lines were made by infection with empty vector.
(§3) Cytarabine (AraC), Trans-ISRIB, FX-1, and Toyocamycin were obtained from Cayman Chemicals. For polysome analysis, FXR1 OE and control cells were treated with 1 μM trans-ISRIB for 24 h. For cell viability FXR1 OE and control cells were treated individually or with a combination of 5 μM AraC and 1 μM trans-ISRIB for 24 h; 100 nM Toyocamycin and 1 μM AraC; 10 μM FX-1 and 5 μM AraC.

In a further experiment the test system is G0 cells (THP1). The experiment is described as follows: Chemosurvival of G0 cells treated with ISRIB and AraC. As to conditions: ISRIB and AraC (FIG. 4H). The procedure: as §1, §3
Experiment [2] relates to FXR1-overexpression cells. The experiment is described as follows: Polysome analysis followed by qPCR of mRNAs, with or without ISRIB. The following applies: FXR1 OE cells, 1 μM trans-ISRIB for 24 h. How it is done: Sucrose was dissolved in lysis buffer containing 100 mM KCl, 5 mM MgCl2, 2 mM DTT and 10 mM Tris-HCl (pH 7.4). Sucrose gradients from 10% to 55% were prepared in ultracentrifuge tubes (Beckman). Harvested cells were rinsed with ice-cold PBS and resuspended in lysis buffer with 1% Triton X-100 and 40 U/mL […] (New England Biolabs) for 20 minutes with intermittent tapping on ice. After centrifugation of cell lysates at 12,000×g for 20 minutes, supernatants were loaded onto sucrose gradients followed by ultracentrifugation (Beckman Coulter Optima L90) at 32,500×rpm at 4° C. for 80 min in the SW40 rotor. Samples were separated by density gradient fractionation system (Biocomp Piston Gradient Fractionation). RNAs were purified by using TRIzol (Invitrogen) from heavy polysome fractions and whole cell lysates. The synthesized cDNA probes from WT Expression Kit (Ambion) were hybridized to Gene Chip Human Transcriptome Array 2.0 (Affymetrix) and analyzed by the Partners Healthcare Center for Personalized Genetic Medicine Microarray and BUMC facilities. Gene ontology analysis for differentially expressed translatome or proteome was conducted by DAVID 6.7 tools. Molecular signatures enriched in FXR1 OE and Control cells were identified by Gene Set Enrichment Analysis (GSEA).
Total RNA was isolated using TRIzol (Invitrogen) according to the manufacturer's instructions. […]

A further experiment relates to ATF4. As to the kind of experiment: Western blot of non-canonical translation target ATF4 with ISRIB. As to conditions: in the presence of ISRIB. How it is done:
as §2

Procedure for PKR: Cells were collected and resuspended in lysis buffer containing 40 mM Tris-HCl (pH 7.4), 6 mM MgCl2, 150 mM NaCl, 0.1% NP-40, 1 mM DTT, 20 mM, 17.5 mM β-glycerophosphate, 5 mM NaF and protease inhibitors. Samples containing 80 μg of protein were loaded onto 4%-20% gradient SDS-PAGE (Bio-Rad) or 16% SDS-PAGE (Invitrogen), transferred to PVDF membranes and processed for immunoblotting. Antibodies against FXR1 (used for Western), Actin, Tubulin were from Millipore; NOLC1, DDX21, PolR1D, RPLP0, RPLP2, RPL29, RPL11, FXR1 (used for Immunoprecipitation) were from Protein Tech; PKR, P—PKR, EIF2α, P-EIF2α, GCN2 (used for immunoprecipitation) were from Cell Signaling; P-GCN2, GCN2 (used for Western) were from abcam.

For `Nc1ccn([C@@H]2O[C@H](CO)[C@@H](O)[C@@H]2O)c(=O)n1` [AraC, Cytarabine], in the experiment on FXR1, the FXR1 protein level entry is listed as “increases”. The “phosphorylation and activation of PKR” value in the experiment on PKR is “increased phosphorylation and activation”. The “rRNA pseudouridylation at snoRA22 sites on 28S at U4966 and U4975” value in experiment [1] is recorded as “increases”.

In the case of `O=C(COc1ccc(Cl)cc1)NC1CCC(NC(=O)COc2ccc(Cl)cc2)CC1` (stereo not drawn) [ISRIB], the chemosurvival entry in the experiment with FXR1 OE cells (THP1) (FXR1 OE cells, 1 μM trans-ISRIB combined with 5 μM AraC, 24 h, compared to buffer and AraC) is “reduced chemosurvival”; in the experiment on G0 cells (THP1), “reduced chemosurvival”. Also, in experiment [2], the “polysome association of mRNAs that are upregulated in FXR1-overexpressing cells” value is listed as “reduced polysome association”. Also, the “polysome association of other genes like vinculin” value in experiment [2] is “without affecting”. Also, the “level of known non-canonical targets such as ATF4” value with ATF4 is “decrease”.

For the molecule `N#Cc1cn([C@@H]2O[C@H](CO)[C@@H](O)[C@H]2O)c2ncnc(N)c12` [Toyocamycin], the chemosurvival result in the experiment on FXR1 OE cells (THP1) (100 nM Toyocamycin and 1 μM AraC, FXR1 OE and control cells (FIG. 4I)) was “decreased”.
